In brackets after ≈: the same amount, converted by molar mass.
Tests used:
[1] = test system: M. tuberculosis inside the host macrophage; assay: QIM: Quantification of Intracellular Mycobacteria (intracellular growth assay, phenotypic cell-based); settings: Mycobacterium tuberculosis; MIC, 80% bacterial growth inhibition; intracellular growth; read-out: QIM
In short: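 Phenotypic high-content assay measuring M. tuberculosis multiplication inside host macrophages, run as dose response. MIC is the minimum compound concentration giving 80% bacterial growth inhibition.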

[2] = test system: in vitro grown Mycobacteria (M. tuberculosis); assay: QUM: Quantification of in vitro grown Mycobacteria (in vitro growth fluorescence assay); type: cell-based; settings: Mycobacterium tuberculosis; MIC, 80% bacterial growth inhibition; in vitro growth; read-out: QUM
In short: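 Mycobacterium tuberculosis grown in vitro was quantified by fluorescence across compound dose responses. MIC is defined as the minimum concentration producing 80% growth inhibition.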

SMILES | MIC [1] [µM] | MIC [2] [µM] | melting point [°C]
CCc1nc2cc(Cl)ccn2c1C(=O)NCc1ccc(C(F)(F)F)cc1 [Compound 148, 7-Chloro-2-ethyl-N-(4-(trifluoromethyl)benzyl)imidazo[1,2-a]pyridine-3-carboxamide] | < 1 | < 1 | 196.2 to 196.9
CCc1nc2cnccn2c1C(=O)NCc1ccc(OC(F)(F)F)cc1 [Compound 155, 2-Ethyl-N-(4-(trifluoromethoxy)benzyl)imidazo[1,2-a]pyrazine-3-carboxamide] | > 20 | > 20 | 176 to 177
CCc1nc2c[n+]([O-])ccn2c1C(=O)NCc1ccc(OC(F)(F)F)cc1 [Compound 156, 2-Ethyl-3-((4-(trifluoromethoxy)benzyl)carbamoyl)imidazo[1,2-a]pyrazine 7-oxide] | > 20 | > 20 | 215 to 216
CCc1nc2ccc(Cl)cn2c1C(=O)NCCc1ccc(OC)cc1 [Compound 157, 6-Chloro-2-ethyl-N-(4-methoxyphenethyl)imidazo[1,2-a]pyridine-3-carboxamide] | < 1 | < 1 | 129 to 130
CCc1nc2ccc(Cl)cn2c1C(=O)NCCc1ccc(Cl)cc1 [Compound 158, 6-Chloro-N-(4-chlorophenethyl)-2-ethylimidazo[1,2-a]pyridine-3-carboxamide] | < 1 | < 1 | 158 to 159
CCc1nc2c[n+]([O-])ccn2c1C(=O)NCc1ccc(-c2ccc(Cl)cc2)cc1 [Compound 160, 3-(((4′-Chloro-[1,1′-biphenyl]-4-yl)methyl)carbamoyl)-2-ethylimidazo[1,2-a]pyrazine 7-oxide] | > 20 | > 20 | 238
CCc1nc2ccc(Cl)cn2c1C(=O)OCc1ccc(-c2ccccc2)cc1 [Compound 161, [1,1′-Biphenyl]-4-ylmethyl 6-chloro-2-ethylimidazo[1,2-a]pyridine-3-carboxylate] | < 1 | < 1 | 122.3 to 123
CCc1nc2cc(Cl)ccn2c1C(=O)NCc1ccc(N2CCC(Oc3ccc(F)cc3)CC2)cc1 [Compound 167, 7-Chloro-2-ethyl-N-(4-(4-(4-fluorophenoxy)piperidin-1-yl)benzyl)imidazo[1,2-a]pyridine-3-carboxamide] | < 1 | < 1 | 138 to 139
CCc1nc2cc(Cl)ccn2c1C(=O)NCc1ccc(N2CCN(Cc3ccc(F)cc3)CC2)cc1 [Compound 172, 7-Chloro-2-ethyl-N-(4-(4-(4-fluorobenzyl)piperazin-1-yl)benzyl)imidazo[1,2-a]pyridine-3-carboxamide] | < 1 | < 1 | 141 to 142
CCc1nc2ccc(Cl)cn2c1C(=O)NCc1ccc(N2CCN(Cc3ccc(OC(F)(F)F)cc3)CC2)cc1 [Compound 173, 6-Chloro-2-ethyl-N-(4-(4-(4-(trifluoromethoxy)benzyl)piperazin-1-yl)benzyl)imidazo[1,2-a]pyridine-3-carboxamide] | < 1 | < 1 | 138.1 to 138.7
CCc1nc2cc(Cl)ccn2c1C(=O)NCc1ccc(N2CCN(Cc3ccc(OC(F)(F)F)cc3)CC2)cc1 [Compound 174, 7-Chloro-2-ethyl-N-(4-(4-(4-(trifluoromethoxy)benzyl)piperazin-1-yl)benzyl)imidazo[1,2-a]pyridine-3-carboxamide] | < 1 | < 1 | 137.1 to 137.6
CCc1nc2cc(Cl)ccn2c1C(=O)NCc1ccc(N2CCN(c3ccc(F)cc3)CC2)cc1 [Compound 176, 7-Chloro-2-ethyl-N-(4-(4-(4-fluorophenyl)piperazin-1-yl)benzyl)imidazo[1,2-a]pyridine-3-carboxamide] | < 1 | < 1 | 212 to 213
CCc1nc2ccc(Cl)cn2c1C(=O)NCc1ccc(N2CCN(c3ccc(OC(F)(F)F)cc3)CC2)cc1 [Compound 178, 6-Chloro-2-ethyl-N-(4-(4-(4-(trifluoromethoxy)phenyl)piperazin-1-yl)benzyl)imidazo[1,2-a]pyridine-3-carboxamide] | < 1 | < 1 | 206.5 to 207
CCc1nc2cc(Cl)ccn2c1C(=O)NCc1ccc(N2CCN(c3ccc(OC(F)(F)F)cc3)CC2)cc1 [Compound 179, 7-Chloro-2-ethyl-N-(4-(4-(4-(trifluoromethoxy)phenyl)piperazin-1-yl)benzyl)imidazo[1,2-a]pyridine-3-carboxamide] | < 1 | < 1 | 216.3 to 217
CCc1nc2ccccn2c1C(=O)NCc1ccc(N2CCN(c3ccc(OC(F)(F)F)cc3)CC2)cc1 [Compound 181, 2-Ethyl-N-(4-(4-(4-(trifluoromethoxy)phenyl)piperazin-1-yl)benzyl)imidazo[1,2-a]pyridine-3-carboxamide] | < 1 | < 1 | 178 to 179
CCc1nc2ccc(Cl)cn2c1C(=O)N(C)Cc1ccc(N2CCN(c3ccc(F)cc3)CC2)cc1 [Compound 182, 6-Chloro-2-ethyl-N-(4-(4-(4-fluorophenyl)piperazin-1-yl)benzyl)-N-methylimidazo[1,2-a]pyridine-3-carboxamide] | 1 to 20 (≈ 0.506 to 10.1 µg/mL) | < 1 | 148 to 149
CCc1nc2cc(Cl)ccn2c1C(=O)NCc1ccc(Oc2ccc(OC(F)(F)F)cc2)cc1 [Compound 186, 7-Chloro-2-ethyl-N-(4-(4-(trifluoromethoxy)phenoxy)benzyl)imidazo[1,2-a]pyridine-3-carboxamide] | < 1 | < 1 | 141 to 142
CCc1nc2ccc(Cl)cn2c1C(=O)NCc1ccc(Oc2ccc(F)cc2)cc1 [Compound 187, 6-Chloro-2-ethyl-N-(4-(4-fluorophenoxy)benzyl)imidazo[1,2-a]pyridine-3-carboxamide] | < 1 | < 1 | 168 to 169
CCc1nc2ccc(Cl)cn2c1C(=O)NCc1ccc(Oc2ccc(Cl)cc2)cc1 [Compound 190, 6-Chloro-N-(4-(4-chlorophenoxy)benzyl)-2-ethylimidazo[1,2-a]pyridine-3-carboxamide] | < 1 | < 1 | 159 to 160.7
CCc1nc2cc(Cl)ccn2c1C(=O)NCc1ccc(Oc2ccc(Cl)cc2)cc1 [Compound 191, 7-Chloro-N-(4-(4-chlorophenoxy)benzyl)-2-ethylimidazo[1,2-a]pyridine-3-carboxamide] | < 1 | < 1 | 167.1 to 167.9
CCc1nc2cc(Cl)ccn2c1C(=O)NCc1ccc(Oc2ccc(F)cc2)nc1 [Compound 193, 7-Chloro-2-ethyl-N-((6-(4-fluorophenoxy)pyridin-3-yl)methyl)imidazo[1,2-a]pyridine-3-carboxamide] | < 1 | < 1 | 167 to 167.6
CCc1nc2ccc(Cl)cn2c1C(=O)NCc1ccc(Oc2ccc(OC(F)(F)F)cc2)nc1 [Compound 194, 6-Chloro-2-ethyl-N-((6-(4-(trifluoromethoxy)phenoxy)pyridin-3-yl)methyl)imidazo[1,2-a]pyridine-3-carboxamide] | < 1 | 1 to 20 (≈ 0.491 to 9.82 µg/mL) | 154 to 155
CCc1nc2ccc(Cl)cn2c1C(=O)OCc1ccc(Oc2ccccc2)cc1 [Compound 196, 4-Phenoxybenzyl 6-chloro-2-ethylimidazo[1,2-a]pyridine-3-carboxylate] | < 1 | 1 to 20 (≈ 0.407 to 8.14 µg/mL) | 123.3 to 123.8
CCc1nc2ccc(Cl)cn2c1C(=O)NCc1ccc(N2CC(C)OC(C)C2)cc1 (stereo not drawn) [Compound 209, 6-Chloro-N-(4-(2,6-dimethylmorpholino)benzyl)-2-ethylimidazo[1,2-a]pyridine-3-carboxamide] | < 1 | < 1 | 176 to 177
CCc1nc2cc(Cl)ccn2c1C(=O)NCc1ccc(N2CC(C)OC(C)C2)cc1 (stereo not drawn) [Compound 210, 7-Chloro-N-(4-(2,6-dimethylmorpholino)benzyl)-2-ethylimidazo[1,2-a]pyridine-3-carboxamide] | < 1 | 1 to 20 (≈ 0.427 to 8.54 µg/mL) | 165 to 166
CCc1nc2ccc(Cl)cn2c1C(=O)NCc1ccc(N2CCCC2)cc1 [Compound 211, 6-Chloro-2-ethyl-N-(4-(pyrrolidin-1-yl)benzyl)imidazo[1,2-a]pyridine-3-carboxamide] | < 1 | < 1 | 222 to 223
CCc1nc2ccc(Cl)cn2c1C(=O)NCc1ccc(N2CC(C)CC(C)C2)cc1 (stereo not drawn) [Compound 216, 6-Chloro-N-(4-(3,5-dimethylpiperidin-1-yl)benzyl)-2-ethylimidazo[1,2-a]pyridine-3-carboxamide] | < 1 | < 1 | 157.2 to 158
CCc1nc2cc(Cl)ccn2c1C(=O)NCc1ccc(N2CC(C)CC(C)C2)cc1 (stereo not drawn) [Compound 217, 7-Chloro-N-(4-(3,5-dimethylpiperidin-1-yl)benzyl)-2-ethylimidazo[1,2-a]pyridine-3-carboxamide] | < 1 | < 1 | 181.5 to 182.8
CCc1nc2cc(Cl)ccn2c1C(=O)NCc1ccc(N2CCC(O)CC2)cc1 [Compound 218, 7-Chloro-2-ethyl-N-(4-(4-hydroxypiperidin-1-yl)benzyl)imidazo[1,2-a]pyridine-3-carboxamide] | > 20 | < 1 | 179.1 to 180
